According to PMC5363571 (Oncotarget, 2016):
Structures can show the parent of a compound that is named as a salt.

Each molecule was assayed against USP7 (Homo sapiens, UniProt Q93009) (assay: biochemical). Conditions: read-out: % Inhibition at 50 μM.
Design: Ub-AMC hydrolysis by recombinant USP7 (20 nM), 30 min pre-incubation, fluorescence read-out

Chain of USP7 (Q93009 whole entry): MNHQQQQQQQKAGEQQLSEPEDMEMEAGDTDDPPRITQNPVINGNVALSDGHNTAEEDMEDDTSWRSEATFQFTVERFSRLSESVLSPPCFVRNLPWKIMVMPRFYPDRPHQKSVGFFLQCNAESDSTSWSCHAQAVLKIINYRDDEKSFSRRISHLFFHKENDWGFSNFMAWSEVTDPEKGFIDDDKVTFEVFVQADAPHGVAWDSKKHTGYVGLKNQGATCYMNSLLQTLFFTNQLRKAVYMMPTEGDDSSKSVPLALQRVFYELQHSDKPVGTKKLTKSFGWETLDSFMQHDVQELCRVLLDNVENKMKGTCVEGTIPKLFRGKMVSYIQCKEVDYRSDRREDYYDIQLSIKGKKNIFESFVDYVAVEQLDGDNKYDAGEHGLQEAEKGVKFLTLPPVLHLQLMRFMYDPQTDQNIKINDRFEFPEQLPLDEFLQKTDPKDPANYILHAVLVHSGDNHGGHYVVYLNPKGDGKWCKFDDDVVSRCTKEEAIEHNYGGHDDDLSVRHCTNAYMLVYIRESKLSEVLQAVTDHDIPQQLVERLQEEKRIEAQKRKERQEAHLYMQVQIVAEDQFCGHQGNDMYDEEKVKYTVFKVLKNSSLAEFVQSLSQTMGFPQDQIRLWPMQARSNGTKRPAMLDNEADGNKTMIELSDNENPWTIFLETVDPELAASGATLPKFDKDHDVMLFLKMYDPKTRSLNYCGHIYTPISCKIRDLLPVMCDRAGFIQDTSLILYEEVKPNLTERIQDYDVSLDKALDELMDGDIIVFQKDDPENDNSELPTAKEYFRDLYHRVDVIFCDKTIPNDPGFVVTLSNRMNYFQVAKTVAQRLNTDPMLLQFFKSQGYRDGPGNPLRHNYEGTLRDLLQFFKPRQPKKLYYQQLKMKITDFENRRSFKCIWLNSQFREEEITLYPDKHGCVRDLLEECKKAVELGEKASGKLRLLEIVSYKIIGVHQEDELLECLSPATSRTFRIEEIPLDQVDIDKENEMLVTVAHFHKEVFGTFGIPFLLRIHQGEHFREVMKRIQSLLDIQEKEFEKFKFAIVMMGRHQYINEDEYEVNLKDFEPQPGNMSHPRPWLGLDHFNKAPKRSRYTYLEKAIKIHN

| Structure (SMILES) | inhibition at 50 µM [%] |
| --- | --- |
| CCCCC[C@H](O)/C=C/[C@H]1[C@H](O)CC(=O)[C@@H]1CCCCCCC(=O)O [Alprostadil] | < 5 |
| C=C[C@H]1CN2CC[C@H]1C[C@H]2[C@H](O)c1ccnc2ccc(OC)cc12 [Quinine] | 16.9 |
| C#CCN(C)C(C)Cc1ccccc1 (centres unmarked) [Deprenyl] | < 5 |
| CC1(C)CC[C@]2(C(=O)O)CCC3=C([C@@H](CCl)C[C@@H]4[C@@]5(C)C[C@H](O)[C@H](O)[C@@](C)(C(=O)O)[C@@H]5CC[C@@]34C)[C@@H]2C1 [Senegenin] | < 5 |
| CN1CCc2cccc3c2[C@H]1Cc1ccc(O)c(O)c1-3 [Apomorphine r (-)] | < 5 |
| CC1(C)CC[C@]2(C(=O)O)CC[C@]3(C)C(=CC[C@@H]4[C@@]5(C)C[C@H](O)[C@H](O)[C@@](C)(CO)[C@@H]5CC[C@]43C)[C@@H]2C1 [Bayogenin] | < 5 |
| CCCCN1C[C@H](O)[C@@H](O)[C@H](O)[C@H]1CO [Miglustat] | < 5 |
| C[C@]12C[C@H](O)[C@H]3[C@@H](CCC4=CC(=O)CC[C@@]43C)[C@@H]1CC[C@@H]2C(=O)CO [Corticosterone] | < 5 |
| CC[C@@H](CO)NC(=O)[C@@H]1C=C2c3cccc4c3c(cn4C)C[C@H]2N(C)C1 [Methysergide] | < 5 |
| O=C(C1CCCCC1)N1CC(=O)N2CCc3ccccc3C2C1 (centres unmarked) [Praziquantel] | < 5 |
| Cn1ccnc1S [Methimazole] | < 5 |
| Cc1cccc(C)c1NC1=NCCCS1 [Xylazine HCl] | < 5 |
| Cc1cn([C@H]2C[C@H](N=[N+]=[N-])[C@@H](CO)O2)c(=O)[nH]c1=O [3'-azido-3'-deoxythymidine] | < 5 |
| Cc1c(C)c2c(c(C)c1O)CCC(C)(COc1ccc(CC3SC(=O)NC3=O)cc1)O2 (centres unmarked) [Troglitazone] | 5.3 |
| Cn1c(=O)c2c(ncn2CC2OCCO2)n(C)c1=O [Doxofylline] | < 5 |
| CCC1=C[C@@H]2CN(C1)Cc1c([nH]c3ccccc13)[C@@](C(=O)OC)(c1cc3c(cc1OC)N(C)[C@H]1[C@@](O)(C(=O)OC)[C@H](OC(C)=O)[C@]4(CC)C=CCN5CC[C@]31[C@@H]54)C2 [Vinorelbine] | 45.3 |
| NC1CCN(c2c(F)cc3c(=O)c(C(=O)O)cn(C4CC4)c3c2Cl)C1 (centres unmarked) [Clinafloxacin HCl] | < 5 |
| Clc1ccc(COC(Cn2ccnc2)c2ccc(Cl)cc2Cl)c(Cl)c1 (centres unmarked) [Miconazole] | < 5 |
| NCC1(CC(=O)O)CCCCC1 [Gabapentin] | < 5 |
| O=C(O)c1cc(-c2ccc(F)cc2F)ccc1O [Diflunisal] | 31.5 |
| CN1[C@@H]2C[C@@H](OC(=O)[C@H](CO)c3ccccc3)C[C@H]1[C@@H]1O[C@@H]12 [Scopolamine HBr] | < 5 |
| CS(=O)(=O)CCNCc1ccc(-c2ccc3ncnc(Nc4ccc(OCc5cccc(F)c5)c(Cl)c4)c3c2)o1 [Lapatinib] | < 5 |
| C[N+]1(C)[C@@H]2C[C@@H](OC(=O)C(O)(c3cccs3)c3cccs3)C[C@H]1[C@@H]1O[C@@H]12 [Tiotropium Br] | < 5 |
| C[C@]12Cc3c[nH]nc3C[C@@H]1CC[C@@H]1[C@@H]2CC[C@@]2(C)[C@H]1CC[C@]2(C)O [Stanozolol] | < 5 |
| C[C@H]1[C@H](C)CC[C@]2(C(=O)O)CC[C@]3(C)C(=CC[C@@H]4[C@@]5(C)C[C@@H](O)[C@H](O)[C@@](C)(CO)[C@@H]5CC[C@]43C)[C@H]12 [Asiatic acid] | < 5 |

| Structure (SMILES) | inhibition at 50 µM [%] |
| --- | --- |
| Nc1nc(N)nc(-c2cc(Cl)ccc2Cl)n1 [Irsogladine maleate] | < 5 |
| CC(C)(Oc1ccc(CCNC(=O)c2ccc(Cl)cc2)cc1)C(=O)O [Bezafibrate] | < 5 |
| CCCC[N+]1(C)[C@@H]2C[C@@H](OC(=O)[C@H](CO)c3ccccc3)C[C@H]1[C@@H]1O[C@@H]12 (some centres unmarked) [Scopolamine n-butylbromide] | < 5 |
| CCC(NC(C)C)C(O)c1ccc(O)c2[nH]c(=O)ccc12 (centres unmarked) [Procaterol hcl] | < 5 |
| Cc1[nH]c(=O)c(C#N)cc1-c1ccncc1 [Milrinone] | < 5 |
| CO[C@@H]1[C@@H](OC(N)=O)[C@@H](O)[C@H](Oc2ccc3c(O)c(NC(=O)c4ccc(O)c(CC=C(C)C)c4)c(=O)oc3c2C)OC1(C)C [Novobiocin Na] | < 5 |
| CO[C@@]12[C@H](COC(N)=O)C3=C(C(=O)C(C)=C(N)C3=O)N1C[C@@H]1N[C@@H]12 [Mitomycin c] | 31.5 |
| CCN1CCC[C@H]1CNC(=O)c1c(O)c(Cl)cc(Cl)c1OC [Raclopride l-tartrate s(-)] | < 5 |
| C[C@]12CC[C@H](O)CC1=CC[C@@H]1[C@@H]2CC[C@]2(C)C(=O)CC[C@@H]12 [Dehydroepiandrosterone] | < 5 |
| CCCCC(C)(O)C/C=C/[C@H]1[C@H](O)CC(=O)[C@@H]1CCCCCCC(=O)OC (mixture of isomers) [Misoprostol] | < 5 |
| O=C(O)Cc1ccccc1Nc1c(Cl)cccc1Cl [Diclofenac, Na] | < 5 |
| CC(C)NCC(O)COc1cccc2[nH]ccc12 (centres unmarked) [Pindolol] | < 5 |
| C[C@H](N[C@@H](CCc1ccccc1)C(=O)O)C(=O)N1CCC[C@H]1C(=O)O [Enalaprilat] | < 5 |
| Oc1ccc2c3c1O[C@H]1c4[nH]c5ccccc5c4C[C@@]4(O)[C@@H](C2)N(CC2CC2)CC[C@]314 [Naltrindole HCl] | < 5 |
| Cc1cnc(NC(=O)C2=C(O)c3ccccc3S(=O)(=O)N2C)s1 [Meloxicam] | < 5 |
| CO[C@H](C(=O)[C@@H](O)[C@@H](C)O)[C@@H]1Cc2cc3cc(O[C@H]4C[C@@H](O[C@@H]5C[C@@H](O)[C@H](O)[C@@H](C)O5)[C@H](O)[C@@H](C)O4)c(C)c(O)c3c(O)c2C(=O)[C@H]1O[C@H]1C[C@@H](O[C@@H]2C[C@@H](O)[C@@H](O[C@@H]3C[C@](C)(O)[C@H](O)[C@@H](C)O3)[C@@H](C)O2)[C@H](O)[C@@H](C)O1 [Plicamycin] | < 5 |
| COC(=O)[C@]1(C)CC[C@]2(C)CC[C@]3(C)C4=CC=C5C(=CC(=O)C(O)=C5C)[C@]4(C)CC[C@@]3(C)[C@@H]2C1 [Pristimerin] | 39.1 |
| N[C@@H](Cc1cc(I)c(Oc2cc(I)c(O)c(I)c2)c(I)c1)C(=O)O [L-thyroxine [(3-[4-(4-hydroxy-3,5-diiodophenoxy)-3,5-diiodophenyl]-l-alanine]] | 65.3 |
| CNCCC(Oc1ccccc1OC)c1ccccc1 (centres unmarked) [Nisoxetine HCl] | < 5 |
| CN(C)CCOC(c1ccccc1)c1ccccc1 [Diphenhydramine HCl] | < 5 |
| CCOC(=O)N1CCC(=C2c3ccc(Cl)cc3CCc3cccnc32)CC1 [Loratadine] | 20.4 |
| Cc1ncc([N+](=O)[O-])n1CC(C)O (centres unmarked) [Secnidazole] | < 5 |
| CC[C@]1(O)C[C@@H]2CN(CCc3c([nH]c4ccccc34)[C@@](C(=O)OC)(c3cc4c(cc3OC)N(C)[C@H]3[C@@](O)(C(N)=O)[C@H](O)[C@]5(CC)C=CCN6CC[C@]43[C@@H]65)C2)C1 [Vindesine] | < 5 |
| O=C(NCC1CCCCN1)c1cc(OCC(F)(F)F)ccc1OCC(F)(F)F (centres unmarked) [Flecainide] | < 5 |
| CCCN1C[C@H](CSC)C[C@@H]2c3cccc4[nH]cc(c34)C[C@H]21 [Pergolide mesylate] | < 5 |

| Structure (SMILES) | inhibition at 50 µM [%] |
| --- | --- |
| CC(=O)NC[C@H]1CN(c2ccc(N3CCOCC3)c(F)c2)C(=O)O1 [Linezolid] | < 5 |
| CC/C(=C(/CC)c1ccc(O)cc1)c1ccc(O)cc1 [Diethylstilbestrol] | 30.6 |
| c1ccc2c(CC3=NCCN3)cccc2c1 [Naphazoline HCl] | < 5 |
| Cc1ccc(N(CC2=NCCN2)c2cccc(O)c2)cc1 [Phentolamine HCl] | < 5 |
| CCCCNC(=O)NS(=O)(=O)c1ccc(C)cc1 [Tolbutamide] | < 5 |
| Cc1ncc([N+](=O)[O-])n1CCO [Metronidazole] | < 5 |
| O=C(O)/C=C/c1ccc(Cn2ccnc2)cc1 [Ozagrel] | < 5 |
| O=C1Nc2ccc(Cl)cc2[C@@](C#CC2CC2)(C(F)(F)F)O1 [Efavirenz] | 29.8 |
| CNCCCC12CCC(c3ccccc31)c1ccccc12 [Maprotiline HCl] | 11.3 |
| Cc1cccc(Nc2ccccc2C(=O)O)c1C [Mefenamic acid] | < 5 |
| CC=CC(=O)N(CC)c1ccccc1C [Crotamiton] | < 5 |
| CC(=O)O[C@@]12CO[C@@H]1C[C@H](O)[C@@]1(C)C(=O)[C@H](O)C3=C(C)[C@@H](OC(=O)[C@H](O)[C@@H](NC(=O)OC(C)(C)C)c4ccccc4)C[C@@](O)([C@@H](OC(=O)c4ccccc4)[C@H]21)C3(C)C [Docetaxil] | < 5 |
| O=c1[nH]c2ccccc2n1C1CCN(CCCC(c2ccc(F)cc2)c2ccc(F)cc2)CC1 [Pimozide] | < 5 |
| Nc1nc2c(ncn2COCCO)c(=O)[nH]1 [Acycloguanosine] | < 5 |
| CC1(C)[C@H](C(=O)O)N2C(=O)C[C@H]2S1(=O)=O [Sulbactam] | < 5 |
| NC12CC3CC(CC(C3)C1)C2 [Amantadine HCl] | < 5 |
| CN(C)CCCOc1nn(Cc2ccccc2)c2ccccc12 [Benzydamine] | < 5 |
| CCCCn1c(=O)c2c(ncn2CC(C)=O)n(CCCC)c1=O [Denbufylline] | < 5 |
| CCn1cc(C(=O)O)c(=O)c2cc(F)c(N3CCNC(C)C3)c(F)c21 (centres unmarked) [Lomefloxacin HCl] | 8.6 |
| Clc1ccc2c(c1)C(N1CCNCC1)=Nc1ccccc1O2 [Amoxapine] | 16.8 |
| C[C@H]1[C@H](C)CC[C@]2(C(=O)O)CC[C@]3(C)C(=CC[C@@H]4[C@@]5(C)C[C@@H](O)[C@H](O)C(C)(C)[C@@H]5CC[C@]43C)[C@H]12 [Corosolic acid] | 43.2 |
| CCN1CCC[C@H]1CNC(=O)c1cc(S(N)(=O)=O)ccc1OC [Sulpiride s (-)] | < 5 |
| O=C(CCNNC(=O)c1ccncc1)NCc1ccccc1 [Nialamide] | < 5 |
| CCCCC(C#N)(Cn1cncn1)c1ccc(Cl)cc1 (centres unmarked) [Myclobutanil] | < 5 |
